Values quoted from earlier work in US20020164314A1, “Ovarian hormone induced neural stem cell increase” (Neurostasis, Inc., priority 2001, published 2002).

What was measured:
[1] = test system: development of female characteristics in animals
[2] = test system: proliferating cells in the dentate gyrus
[3] = corticosterone, Alonso 2000, adult rats

C[C@]12CC[C@@H]3c4ccc(O)cc4CC[C@H]3[C@@H]1CC[C@@H]2O [β-estradiol]
estrogenic potency relative to estriol ([1]; ratio versus estriol): 80 times
estrogenic potency relative to estrone ([1]; ratio versus estrone): 12 times

Estrogen
number of new neurons in the dentate gyrus ([2]; Tanapat et al. 1999, adult female): transient increase
proliferation in the dentate gyrus ([2]; Tanapat et al. 1999, adult female rat): stimulate proliferation
mitotic activity in the subventricular zone (SVZ proliferating cells; Tanapat et al. 1999): no mitotic activity

C[C@]12C[C@H](O)[C@H]3[C@@H](CCC4=CC(=O)CC[C@@]43C)[C@@H]1CC[C@@H]2C(=O)CO [corticosterone]
cell proliferation in the dentate gyrus [2, 3]: dramatically decreases
effect on the SVZ proliferating cells (SVZ proliferating cells; [3]): no effect
